From patent publication US20180042234A1, “FUNGICIDAL PYRAZOLES” (E I DU PONT DE NEMOURS AND COMPANY, priority 2015, published 2018)
Marks after values point to notes of the source that are not given here.

Experiments:
Type in all cases: in vivo
[1] = system: Puccinia recondita f. sp. tritici; assay: Test A: wheat leaf rust, preventive spray on wheat seedlings, visual disease rating
Description: (§1) General protocol for preparing test suspensions for Tests A-E: the test compounds were first dissolved in acetone in an amount equal to 3% of the final volume and then suspended at the desired concentration (in ppm) in acetone and purified water (50/50 mix by volume) containing 250 ppm of the surfactant Trem® 014 (polyhydric alcohol esters). The resulting test suspensions were then used in Tests A-E. Spraying a 200 ppm test suspension to the point of run-off on the test plants was the equivalent of a rate of 800 g/ha.
The test suspension was sprayed to the point of run-off on wheat seedlings. The following day the seedlings were inoculated with a spore suspension of Puccinia recondita f. sp. tritici (the causal agent of wheat leaf rust) and incubated in a saturated atmosphere at 20° C. for 24 h, and then moved to a growth chamber at 20° C. for 7 days, after which time visual disease ratings were made.
(§2) Results for Tests A-E are given in Table A. In the Table, a rating of 100 indicates 100% disease control and a rating of 0 indicates no disease control (relative to the controls). A dash (-) indicates no test results. All results are for 200 ppm except where followed by an asterisk “*” which indicates a 250 ppm test suspension was used or a double asterisk “**” which indicates a 50 ppm test suspension was used.

[2] = system: Septoria tritici; assay: Test B: wheat leaf blotch, preventive spray on wheat seedlings, visual disease rating
Description: as §1
The test suspension was sprayed to the point of run-off on wheat seedlings. The following day the seedlings were inoculated with a spore suspension of Septoria tritici (the causal agent of wheat leaf blotch) and incubated in a saturated atmosphere at 24° C. for 48 h, and then moved to a growth chamber at 20° C. for 19 days, after which time visual disease ratings were made.
as §2

[3] = system: Botrytis cinerea; assay: Test C: tomato Botrytis, preventive spray on tomato seedlings, visual disease rating
Description: as §1
The test suspension was sprayed to the point of run-off on tomato seedlings. The following day the seedlings were inoculated with a spore suspension of Botrytis cinerea (the causal agent of tomato Botrytis) and incubated in a saturated atmosphere at 20° C. for 48 h, and then moved to a growth chamber at 24° C. for 3 days, after which time visual disease ratings were made.
as §2

[4] = system: Blumeria graminis f sp. tritici; assay: Test D: wheat powdery mildew, preventive spray on wheat seedlings, visual disease rating
Description: as §1
The test suspension was sprayed to the point of run-off on wheat seedlings. The following day the seedlings were inoculated with a spore dust of Blumeria graminis f sp. tritici, (also known as Erysiphe graminis f sp. tritici, the causal agent of wheat powdery mildew) and incubated in a growth chamber at 20° C. for 8 days, after which time visual disease ratings were made.
as §2

[5] = system: Septoria nodorum; assay: Test E: Septoria glume blotch, preventive spray on wheat seedlings, visual disease rating
Description: as §1
The test suspension was sprayed to the point of run-off on wheat seedlings. The following day the seedlings were inoculated with a spore suspension of Septoria nodorum (the causal agent of Septoria glume blotch) and incubated in a saturated atmosphere at 20° C. for 48 h, and then moved to a growth chamber at 20° C. for 9 days, after which time visual disease ratings were made.
as §2

[6] = 200 ppm test suspension, 100 = 100% disease control, 0 = no control

Compound | Test A disease control rating [1, 6] [%] | Test B disease control rating ([2]; 200 ppm test suspension) [%] | Test C disease control rating ([3]; 200 ppm test suspension) [%] | Test D disease control rating ([4]; 200 ppm test suspension) [%] | Test E disease control rating ([5]; 200 ppm test suspension) [%] | Test A disease control rating ([1]; 250 ppm test suspension (*)) | Test B disease control rating ([2]; 250 ppm test suspension (*)) | Test C disease control rating ([3]; 250 ppm test suspension (*)) | Test D disease control rating ([4]; 250 ppm test suspension (*)) | Test E disease control rating ([5]; 250 ppm test suspension (*))
CCCCCCCCc1c(C)nn(C)c1Nc1ccc(F)cc1 [Compound 1] | 41 | 0 | 0 | 63 | 0 | – | – | – | – | –
CCCCCCCCc1c(C)nn(C)c1Nc1ccc(F)cc1Cl [Compound 2] | 0 | 0 | 0 | 0 | 0 | – | – | – | – | –
Cc1nn(C)c(Nc2c(F)cc([N+](=O)[O-])cc2F)c1C1=CCCCC1 [Compound 4] | 32 | 93 | 92 | 0 | 0 | – | – | – | – | –
Cc1nn(C)c(Nc2c(F)cc(N)cc2F)c1C1=CCCCC1 [Compound 5] | 0 | 1 | 0 | 0 | 0 | – | – | – | – | –
Cc1nn(C)c(Nc2c(F)cc(Cl)cc2F)c1C1=CCCCC1 [Compound 6, N-(4-chloro-2,6-difluorophenyl)-4-(1-cyclohexen-1-yl)-1,3-dimethyl-1H-pyrazol-5-amine] | 19 | 84 | 98 | 0 | 0 | – | – | – | – | –
CCC(=O)c1c(C)nn(C)c1Oc1c(F)cccc1F [Compound 7] | 0 | 62 | 0 | 0 | 0 | – | – | – | – | –
Cc1nn(C)c(Nc2ccc(F)cc2Cl)c1C1=CCC(C#N)CC1 (stereo not shown) [Compound 13] | – | – | – | – | – | 67* % | 97* % | 79* % | 13* % | 0* %
Cc1nn(C)c(Nc2ccc(F)cc2)c1C1CCC(C)(C)CC1 [Compound 14] | – | – | – | – | – | 67* % | 33* % | 0* % | 27* % | 62* %
Cc1nn(C)c(Nc2ccc(F)cc2F)c1C1CCC(C)CC1 (stereo not shown) [Compound 16] | – | – | – | – | – | 53* % | 0* % | 19* % | 97* % | 19* %
CC(=NO)c1c(C)nn(C)c1Nc1ccc(F)cc1Cl [Compound 34] | – | – | – | – | – | 28* % | 76* % | 0* % | 64* % | 0* %
C=C(C)c1c(C)nn(C)c1Nc1c(F)cc([N+](=O)[O-])cc1F [Compound 36] | – | – | – | – | – | 55* % | 88* % | 0* % | 27* % | 0* %
Cc1nn(C)c(Nc2c(F)cc(Cl)cc2F)c1C1=CCCC1 [Compound 43] | 68 | 92 | 0 | 0 | 0 | – | – | – | – | –
CCC(O)(CC)c1c(C)nn(C)c1Oc1c(F)cccc1F [Compound 44] | 0 | 15 | 3 | 43 | 0 | – | – | – | – | –
CCCON=C(CC)c1c(C)nn(C)c1Oc1c(F)cccc1F [Compound 45] | 0 | 3 | 0 | 0 | 0 | – | – | – | – | –
Cc1nn(C)c(Nc2c(F)cc(Cl)cc2F)c1C1CCCCC1 [Compound 46, N-(4-chloro-2,6-difluorophenyl)-4-cyclohexyl-1,3-dimethyl-1H-pyrazol-5-amine] | 92 | 99 | 95 | 98 | 0 | – | – | – | – | –
Cc1nn(C)c(Nc2ccc(F)cc2Cl)c1C1CCOCC1 [Compound 56] | – | – | – | – | – | 55* % | 100* % | 100* % | 99* % | –
Cc1nn(C)c(Nc2ccc(F)cc2)c1C1CCOCC1 [Compound 57] | – | – | – | – | – | 0* % | 44* % | 0* % | 89* % | –
Cc1nn(C)c(Nc2ccc(F)cc2F)c1C1=CCOCC1 [Compound 58] | – | – | – | – | – | 0* % | 25* % | 0* % | 0* % | –
Cc1nn(C)c(Nc2ccc(F)cc2F)c1C1CCOCC1 [Compound 59] | – | – | – | – | – | 41* % | 92* % | 24* % | 98* % | –
Cc1nn(C)c(Nc2ccc(F)cc2Cl)c1C1=CCC(C)(C)CC1 [Compound 60] | – | – | – | – | – | 19* % | 16* % | 0* % | 0* % | –
Cc1nn(C)c(Nc2ccc(F)cc2Cl)c1C1CCC(C)CC1 (stereo not shown) [Compound 61] | – | – | – | – | – | 0* % | 53* % | 0* % | 97* % | –
Cc1nn(C)c(Nc2ccc(F)cc2Cl)c1C1CCC(C)(C)CC1 [Compound 62] | – | – | – | – | – | 68* % | 9* % | 0* % | 96* % | –
Cc1nn(C)c(Nc2ccc(F)cc2F)c1C1CCC(C#N)CC1 (stereo not shown) [Compound 63] | – | – | – | – | – | 86* % | 55* % | 0* % | 96* % | –
Cc1nn(C)c(Nc2ccc(F)cc2)c1C1CCC(C)CC1 (stereo not shown) [Compound 64] | – | – | – | – | – | 55* % | 58* % | 0* % | 96* % | –
Cc1nn(C)c(Nc2ccc(F)cc2Cl)c1C1CCC(C#N)CC1 (stereo not shown) [Compound 65] | – | – | – | – | – | 55* % | 54* % | 0* % | 13* % | –
